Reference: patent US20070027118A1 (priority 2005, published 2007)

Assays:
11β-hsd-1 enzyme [1] = biological target: T1, 11β-hsd-1 enzyme (Homo sapiens, UniProt P28845); experiment: biochemical
How it was run: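 Enzyme (5 nM) pre-incubated ≥30 min at RT with inhibitor and 500 μM NADPH in triethanolamine buffer pH 8.0; reaction started with glucose-6-phosphate regenerating system and 200 nM 3H-cortisone, stopped with DMSO after 60 min. Product quantified by radio-HPLC; Kiapp from Morrison tight-binding equation.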

11β-hsd-1 enzyme [2] = biological target: T1, 11β-hsd-1 enzyme; experiment: biochemical; details: read-out: % Inh @ 0.1 mM
How it was run: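 Human 11β-HSD-1 (5 nM) pre-incubated ≥30 min with inhibitor and 500 μM NADPH in triethanolamine buffer pH 8.0 with NaCl, n-dodecyl β-D-maltoside and β-ME; reaction started with G6P/G6PDH/MgCl2 regenerating system and 200 nM 3H-cortisone, run 60 min, stopped with DMSO. 3H-cortisol and substrate separated by radio-HPLC; percent inhibition from peak areas.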

T1 sequence (P28845 whole entry, species assumed): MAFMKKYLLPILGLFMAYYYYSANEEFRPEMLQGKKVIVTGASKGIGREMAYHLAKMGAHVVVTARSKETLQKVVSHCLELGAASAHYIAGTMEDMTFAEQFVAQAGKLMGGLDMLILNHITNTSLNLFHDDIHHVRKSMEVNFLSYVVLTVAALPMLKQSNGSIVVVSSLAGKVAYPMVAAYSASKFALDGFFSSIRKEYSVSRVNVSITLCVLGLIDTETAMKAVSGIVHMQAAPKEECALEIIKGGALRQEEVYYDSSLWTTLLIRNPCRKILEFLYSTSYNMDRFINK

Row | SMILES | Ki (11β-hsd-1 enzyme [1]) [nM] | inhibition (11β-hsd-1 enzyme [2]) [%] | inhibition at 100 µM (11β-hsd-1 enzyme [2]; Table 2, inhibitor 0.1 mM as printed) [%]
1 | CCc1cccc(NS(=O)(=O)N2CCc3c(Cl)cccc3C2)n1 [Example 190, 5-chloro-N-(6-ethylpyridin-2-yl)-34-dihydroisoquinoline-2(1H)-sulfonamide] | 1 | 100 | 
2 | CCc1cccc(NS(=O)(=O)N2CCN(c3ccccn3)CC2)n1 [Example 194, N-(6-ethylpyridin-2-yl)-4-pyridin-2-ylpiperazine-1-sulfonamide] | 37 |  | 81.4
3 | CCc1cccc(NS(=O)(=O)N2CCN(c3ncc(C(F)(F)F)cc3Cl)CC2)n1 [Example 195, 4-[3-chloro-5-(trifluoromethyl)pyridin-2-yl]-N-(6-ethylpyridin-2-yl)piperazine-1-sulfonamide] | 29 | 92.3 | 
4 | CCc1cccc(NS(=O)(=O)N2CCCN(Cc3ccc(F)cc3)CC2)n1 [Example 200, N-(6-ethylpyridin-2-yl)-4-(4-fluorobenzyl)-14-diazepane-1-sulfonamide] | 20 | 96.8 | 

More lines, in order of falling Ki (11β-hsd-1 enzyme [1]), values ahead:

Row | Ki (11β-hsd-1 enzyme [1]) [nM] | inhibition (11β-hsd-1 enzyme [2]) [%] | inhibition at 100 µM (11β-hsd-1 enzyme [2]; Table 2, inhibitor 0.1 mM as printed) [%] | SMILES
5 | 120 | 90.5 |  | CCc1cccc(NS(=O)(=O)N2CCN(c3ncccn3)CC2)n1 [Example 191, N-(6-ethylpyridin-2-yl)-4-pyrimidin-2-ylpiperazine-1-sulfonamide]
6 | 71 | 69.1 |  | CCc1cccc(NS(=O)(=O)N2CCN(c3ncccc3C(F)(F)F)CC2)n1 [Example 198, N-(6-ethylpyridin-2-yl)-4-[3-(trifluoromethyl)pyridin-2-yl]piperazine-1-sulfonamide]
7 | 35 | 79.5 |  | CCc1cccc(NS(=O)(=O)N2CCCCCC2)n1 [Example 197, N-(6-ethylpyridin-2-yl)azepane-1-sulfonamide]
8 | 33 | 83.9 |  | CCc1cccc(NS(=O)(=O)N2CCN(c3ncccc3C#N)CC2)n1 [Example 201, 4-(3-cyanopyridin-2-yl)-N-(6-ethylpyridin-2-yl)piperazine-1-sulfonamide]
9 | 20 | 85.8 |  | CCOC(=O)N1CCN(S(=O)(=O)Nc2cccc(CC)n2)CC1 [Example 196, ethyl 4-{[(6-ethylpyridin-2-yl)amino]sulfonyl}piperazine-1-carboxylate]
10 | 7.7 | 92.5 |  | CCc1cccc(NS(=O)(=O)N2CCCCCCC2)n1 [Example 193, N-(6-ethylpyridin-2-yl)azocane-1-sulfonamide]
